Assay results as given in ChEMBL document CHEMBL4270583, “Synthesis and biological evaluation of dihydroquinoline carboxamide derivatives as anti-tubercular agents” (Eur J Med Chem, 2018).
Values after ≈ are worked out from the molar mass of the structure shown.

Tests used:
[1] = system: Mycobacterium tuberculosis; test: Antitubercular activity against Mycobacterium tuberculosis H37Rv after 1 week by microplate alamar blue assay; format: functional; settings: 168 h
[2] = Cytotoxicity against mouse RAW264.7 cells assessed as growth inhibition at 25 ug/ml after 48 hrs by MTT assay relative to control; format: cell-based; settings: read-out: GI
[3] = Cytotoxicity against mouse RAW264.7 cells assessed as growth inhibition after 48 hrs by MTT assay; format: cell-based

Structure (SMILES): O=C(NCCN1CCCCC1)c1c(-c2ccccc2)c2cc(Cl)ccc2[nH]c1=O
- MIC [1]: 25 µg/mL (≈ 61 µM)

Structure (SMILES): O=C(Nc1ccc(F)cc1)c1c(-c2ccccc2)c2ccccc2[nH]c1=O
- MIC [1]: 25 µg/mL (≈ 69.8 µM)

Structure (SMILES): CS(=O)(=O)c1ccc(NC(=O)c2c(-c3ccccc3)c3ccccc3n(Cc3cccc(Cl)c3)c2=O)cc1
- MIC [1]: 12.5 µg/mL (≈ 23 µM)

Structure (SMILES): Cc1ccc(NC(=O)c2c(-c3ccccc3)c3cc(Cl)ccc3n(Cc3cc(F)cc(F)c3)c2=O)c(C)c1
- MIC [1]: 12.5 µg/mL (≈ 23.6 µM)

Structure (SMILES): COC(=O)C(Cc1c[nH]c2ccccc12)NC(=O)c1c(-c2ccccc2)c2cc(Cl)ccc2[nH]c1=O (stereo not given)
- inhibition at 48 h, 25 ug/ml [2]: 21.5%
- GI50 at 48 h [3]: 104 µg/mL (≈ 209 µM)
- MIC [1]: 6.25 µg/mL (≈ 12.5 µM)

Structure (SMILES): O=C(Nc1ccccc1F)c1c(-c2ccccc2)c2cc(Cl)ccc2n(Cc2ccc(F)cc2)c1=O
- MIC [1]: > 25 µg/mL

Structure (SMILES): Cc1cccc(Cn2c(=O)c(C(=O)Nc3ccc(Br)cc3)c(-c3ccccc3)c3cc(Cl)ccc32)c1
- MIC [1]: > 25 µg/mL

Structure (SMILES): O=C(Nc1ccc(N2CCOCC2)cc1)c1c(-c2ccccc2)c2cc(Cl)ccc2[nH]c1=O
- inhibition at 48 h, 25 ug/ml [2]: 18.6%
- GI50 at 48 h [3]: 96.4 µg/mL (≈ 210 µM)
- MIC [1]: 6.25 µg/mL (≈ 13.6 µM)

Structure (SMILES): Cc1cccc(Cn2c(=O)c(C(=O)Nc3ccc(C(F)(F)F)cc3)c(-c3ccccc3)c3cc(Cl)ccc32)c1
- MIC [1]: > 25 µg/mL

Structure (SMILES): O=C(NCCN1CCOCC1)c1c(-c2ccccc2)c2cc(Cl)ccc2[nH]c1=O
- MIC [1]: 25 µg/mL (≈ 60.7 µM)

Structure (SMILES): O=C(Nc1ccc(F)cc1)c1c(-c2ccccc2)c2ccccc2n(Cc2ccccc2)c1=O
- MIC [1]: > 25 µg/mL

Structure (SMILES): O=C(Nc1ccc(C(F)(F)F)cc1)c1c(-c2ccccc2)c2ccccc2n(Cc2ccccc2)c1=O
- MIC [1]: 25 µg/mL (≈ 50.2 µM)

Structure (SMILES): O=C(NCCc1ccc(O)cc1)c1c(-c2ccccc2)c2cc(Cl)ccc2[nH]c1=O
- MIC [1]: 25 µg/mL (≈ 59.7 µM)

Structure (SMILES): CSc1ccc(NC(=O)c2c(-c3ccccc3)c3cc(Cl)ccc3n(Cc3cccc(C)c3)c2=O)cc1
- MIC [1]: 12.5 µg/mL (≈ 23.8 µM)

Structure (SMILES): CSc1ccc(NC(=O)c2c(-c3ccccc3)c3ccccc3n(Cc3cccc(Cl)c3)c2=O)cc1
- MIC [1]: > 25 µg/mL

Structure (SMILES): O=C(NC12CC3CC(CC(C3)C1)C2)c1c(-c2ccccc2)c2ccccc2[nH]c1=O
- inhibition at 48 h, 25 ug/ml [2]: 16.2%
- GI50 at 48 h [3]: 87.6 µg/mL (≈ 220 µM)
- MIC [1]: 3.12 µg/mL (≈ 7.84 µM)

Structure (SMILES): O=C(Nc1ccc(CO)cc1)c1c(-c2ccccc2)c2cc(Cl)ccc2[nH]c1=O
- MIC [1]: > 25 µg/mL

Structure (SMILES): Cc1cc(C)c(NC(=O)c2c(-c3ccccc3)c3cc(Cl)ccc3n(Cc3cccc(F)c3)c2=O)c(C)c1
- inhibition at 48 h, 25 ug/ml [2]: 22.4%
- GI50 at 48 h [3]: 93.5 µg/mL (≈ 178 µM)
- MIC [1]: 0.78 µg/mL (≈ 1.49 µM)

Structure (SMILES): Cc1cccc(Cn2c(=O)c(C(=O)Nc3ccc(OC(F)(F)F)cc3)c(-c3ccccc3)c3cc(Cl)ccc32)c1
- MIC [1]: > 25 µg/mL

Structure (SMILES): O=C(Nc1ccc2c(c1)OCCO2)c1c(-c2ccccc2)c2ccccc2[nH]c1=O
- MIC [1]: 25 µg/mL (≈ 62.7 µM)

Structure (SMILES): O=C(NCCc1c[nH]c2ccccc12)c1c(-c2ccccc2)c2ccccc2[nH]c1=O
- MIC [1]: 12.5 µg/mL (≈ 30.7 µM)

Structure (SMILES): Cc1cccc(Cn2c(=O)c(C(=O)Nc3ccc(F)cc3)c(-c3ccccc3)c3cc(Cl)ccc32)c1
- MIC [1]: > 25 µg/mL

Structure (SMILES): O=C(Nc1ccc(OC(F)(F)F)cc1)c1c(-c2ccccc2)c2ccccc2n(Cc2ccccc2)c1=O
- MIC [1]: > 25 µg/mL

Structure (SMILES): O=C(Nc1cccc(F)c1)c1c(-c2ccccc2)c2cc(Cl)ccc2n(Cc2ccc(F)cc2)c1=O
- MIC [1]: > 25 µg/mL

Structure (SMILES): O=C(Nc1ccc(Cl)cc1)c1c(-c2ccccc2)c2cc(Cl)ccc2n(Cc2cccc(F)c2)c1=O
- inhibition at 48 h, 25 ug/ml [2]: 24.7%
- GI50 at 48 h [3]: 86.8 µg/mL (≈ 168 µM)
- MIC [1]: 0.39 µg/mL (≈ 0.754 µM)

Structure (SMILES): O=C(NCCc1ccccc1)c1c(-c2ccccc2)c2cc(Cl)ccc2[nH]c1=O
- MIC [1]: 25 µg/mL (≈ 62.1 µM)

Structure (SMILES): COC(=O)C(Cc1ccc(O)cc1)NC(=O)c1c(-c2ccccc2)c2cc(Cl)ccc2[nH]c1=O (stereo not given)
- MIC [1]: 12.5 µg/mL (≈ 26.2 µM)

Structure (SMILES): O=C(Nc1ccc(Br)cc1)c1c(-c2ccccc2)c2ccccc2n(Cc2ccccc2)c1=O
- inhibition at 48 h, 25 ug/ml [2]: 14.6%
- GI50 at 48 h [3]: 113 µg/mL (≈ 222 µM)
- MIC [1]: 6.25 µg/mL (≈ 12.3 µM)

Structure (SMILES): O=C(NCCCn1ccnc1)c1c(-c2ccccc2)c2cc(Cl)ccc2[nH]c1=O
- MIC [1]: 25 µg/mL (≈ 61.4 µM)

Structure (SMILES): Cc1cccc(Cn2c(=O)c(C(=O)Nc3ccc(Cl)cc3)c(-c3ccccc3)c3cc(Cl)ccc32)c1
- MIC [1]: 25 µg/mL (≈ 48.7 µM)

Structure (SMILES): CC[C@@H](CO)NCCN[C@@H](CC)CO [ETHAMBUTOL]
- MIC [1]: 1.56 µg/mL (≈ 7.64 µM)

Structure (SMILES): NNC(=O)c1ccncc1 [ISONIAZID]
- MIC [1]: 0.1 µg/mL (≈ 0.729 µM)

Structure (SMILES): CO[C@H]1/C=C/O[C@@]2(C)Oc3c(C)c(O)c4c(O)c(c(/C=N/N5CCN(C)CC5)c(O)c4c3C2=O)NC(=O)/C(C)=C\C=C\[C@H](C)[C@H](O)[C@@H](C)[C@@H](O)[C@@H](C)[C@H](OC(C)=O)[C@@H]1C [RIFAMPIN]
- MIC [1]: 0.2 µg/mL (≈ 0.243 µM)
